Test results taken from paper PMC2964380 (Bioorganic & medicinal chemistry, 2010).
Read-outs that look alike come from different tables or passages of the source.

Experiments:
HIV-1 (IIIB) [1] = conditions: MT-2 cell culture, MTT assay; cited from earlier work
HIV-1 (IIIB) [2] = assay: Inhibition of HIV-1; type: cell-based; conditions: Human immunodeficiency virus 1, IIIB, MT2, 120 h, read-out: Cell-Culture EC50

| EC50 (HIV-1 (IIIB) [2]) | SMILES | EC50 (HIV-1 (IIIB) [1]) |
| --- | --- | --- |
| – | Cc1cn([C@H]2C=C[C@@H](CO)O2)c(=O)[nH]c1=O [d4T] | 2000 nM |
| 42 nM | COc1ccc(OC)c(CCNC(=S)Nc2ccc(Br)cn2)c1 [HI-236] | – |
